Data on 23 molecules can be found in US20250195530A1, “POLQ INHIBITORS” (ASTRAZENECA AB, priority 2022, published 2025).

One assay concerns DLD-1 cells. In words: Inhibition of proliferation, DLD-1 BRCA2 wt control (Cell Titre Glo 3D). In kind it is cell-based. The note with it: Homo sapiens. An outline of the steps: (§1)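 Read-out: CellTiter-Glo 3D luminescence, day 7 for wt DLD-1, day 12 for BRCA2−/−, about 8-9 population doublings each. Seeding 1,500 or 3,000 cells/mL respectively. Dose range 10 μM–0.51 nM, 3-fold, 10 points, with re-dosing on day 6. IC50 from curve fit.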

Another assay deals with DLD-1 BRCA2−/− cells. In words: Homologous recombination synthetic lethal inhibition of proliferation, DLD-1 BRCA2-/- (Cell Titre Glo 3D). The note with it: Homo sapiens. In kind it is cell-based. An outline of the steps: as §1
Where [1] appears, read: DLD-1, second proliferation column (c6), DLD-1 BRCA2 wt control, read-out: POLQ PD Prolif Lumin (converted).
Where [2] appears, read: DLD-1, first proliferation column (c5), DLD-1 BRCA2-/-, read-out: POLQ PD Prolif Lumin (converted).
Setting [3] is: DLD-1, proliferation, luminescence, second Prolif column (c6), taken as DLD-1 BRCA2 wt control, read-out: POLQ PD Prolif Lumin (converted).
Setting [4] is: DLD-1, proliferation, luminescence, taken as DLD-1 BRCA2-/-, read-out: POLQ PD Prolif Lumin (converted).
Setting [5] is: DLD-1, DLD-1 BRCA2 wt control proliferation, column head only partly shown, read-out: POLQ PD Prolif Lumin (converted).
[6] abbreviates: DLD-1, DLD-1 BRCA2-/- proliferation, column head only partly shown, read-out: POLQ PD Prolif Lumin (converted).
Where [7] appears, read: DLD-1, second proliferation column (c6), taken as DLD-1 BRCA2 wt, read-out: POLQ PD Prolif Lumin (converted).
The mark [8] stands for this setting: DLD-1, first proliferation column (c5), taken as DLD-1 BRCA2-/-, read-out: POLQ PD Prolif Lumin (converted).
Setting [9] is: DLD-1, DLD1 BRCA2 wt, mean, read-out: POLQ PD Prolif Lumin DLD1 mean pIC50 (converted).
The mark [10] stands for this setting: DLD-1, DLD-1 BRCA2 −/−, mean, read-out: POLQ PD Prolif Lumin BRCA2 −/− mean pIC50 (converted).
The mark [11] stands for this setting: DLD-1, 168 h, DLD-1 BRCA2 wt cells, 7 days, read-out: POLQ PD Prolif Lumin DLD1 mean pIC50 (converted).
The mark [12] stands for this setting: DLD-1, 288 h, DLD-1 BRCA2−/− cells, 12 days, read-out: POLQ PD Prolif Lumin BRCA2 −/− mean pIC50 (converted).

Like-named read-outs stand apart in the source and are kept apart here.

On to `Cc1cnc(Cn2c(-c3cccc(OCCN4CC(O)C4)c3Cl)nc3c(OC4(C)CC4)ncnc32)s1` [Example T142, 1-(2-(2-chloro-3-(6-(1-methylcyclopropoxy)-9-((5-methylthiazol-2-yl)methyl)-9H-purin-8-yl)phenoxy)ethyl)azetidin-3-ol], for which the IC50 in the assay with DLD-1 cells (setting [1]) is over 10000 nM; in the assay on DLD-1 BRCA2−/− cells (setting [2]) it was 1000 nM.

With `Cc1ccnc(Cn2c(-c3ccc(C(=O)N4CC5CC(C4)N5)cc3Cl)nc3c(OC4(C)CC4)ncnc32)c1` [Example T427, (3,6-diazabicyclo[3.1.1]heptan-3-yl)(3-chloro-4-(6-(1-methylcyclopropoxy)-9-((4-methylpyridin-2-yl)methyl)-9H-purin-8-yl)phenyl)methanone], the IC50 in the assay with DLD-1 cells (setting [3]) is over 10000 nM; in the assay on DLD-1 BRCA2−/− cells (setting [4]), 7940 nM.

As for `Cc1cnc(Cn2c(-c3ccc(OC[C@H]4CCCN4C)cc3Cl)nc3c(OC4(C)CC4)ncnc32)s1` [Example T240, (R)-2-((8-(2-chloro-4-((1-methylpyrrolidin-2-yl)methoxy)phenyl)-6-(1-methylcyclopropoxy)-9H-purin-9-yl)methyl)-5-methylthiazole], the IC50 in the assay with DLD-1 cells (setting [5]) is over 10000 nM; in the assay on DLD-1 BRCA2−/− cells (setting [6]), 316 nM.

For the molecule `Cc1cnc(Cn2c(-c3ccc(OC[C@H]4CCCN4)cc3Cl)nc3c(OC4(C)CC4)ncnc32)s1` [Example T139, (R)-2-((8-(2-chloro-4-(pyrrolidin-2-ylmethoxy)phenyl)-6-(1-methylcyclopropoxy)-9H-purin-9-yl)methyl)-5-methylthiazole], the figures for the IC50 with DLD-1 cells (setting [1]) and in the assay with DLD-1 BRCA2−/− cells (setting [2]) were over 10000 nM and 398 nM, respectively.

Consider `Cc1ccnc(Cn2c(-c3cccc(OCCN4CC(O)C4)c3Cl)nc3c(OC4(C)CC4)ncnc32)c1` [Example T360, 1-(2-(2-chloro-3-(6-(1-methylcyclopropoxy)-9-((4-methylpyridin-2-yl)methyl)-9H-purin-8-yl)phenoxy)ethyl)azetidin-3-ol], for which the values for the IC50 in the assay with DLD-1 cells (setting [7]) and in the assay with DLD-1 BRCA2−/− cells (setting [8]) were over 10000 nM and 794 nM, respectively.

Take `CC1(Oc2ncnc3c2nc(-c2ccc(OCCCCCCC(=O)O)cc2Cl)n3Cc2cccc(Cl)c2)CC1` [Example T561, 7-(3-chloro-4-(9-(3-chlorobenzyl)-6-(1-methylcyclopropoxy)-9H-purin-8-yl)phenoxy)heptanoic acid]: the IC50 in the assay with DLD-1 cells (setting [1]) is over 10000 nM; in the assay with DLD-1 BRCA2−/− cells (setting [2]), 39.8 nM.

As for `CC(CCOc1ccc(-c2nc3c(OC4(C)CC4)ncnc3n2Cc2cc(Br)ccc2F)c(Cl)c1)C(=O)O` (racemic) [Example T258, 4-(4-(9-(5-bromo-2-fluorobenzyl)-6-(1-methylcyclopropoxy)-9H-purin-8-yl)-3-chlorophenoxy)-2-methylbutanoic acid], the IC50 with DLD-1 cells (setting [5]) is over 10000 nM; in the assay with DLD-1 BRCA2−/− cells (setting [6]), 79.4 nM.

As for `Cc1ccnc(Cn2c(-c3ccc(NS(C)(=O)=O)cc3Cl)nc3c(OC4(C)CC4)ncnc32)c1` [Example T29, N-(3-chloro-4-(6-(1-methylcyclopropoxy)-9-((4-methylpyridin-2-yl)methyl)-9H-purin-8-yl)phenyl)methanesulfonamide], the IC50 was over 10000 nM in the assay on DLD-1 cells (DLD-1, DLD1 BRCA2 wt cells, mean, read-out: POLQ PD Prolif Lumin DLD1 mean PIC50 (converted)) and 1260 nM with DLD-1 BRCA2−/− cells (DLD-1, DLD-1 BRCA2 −/− cells, mean, read-out: POLQ PD Prolif Lumin BRCA2 −/− mean pIC50 (converted)).

As to `COc1ccc(F)cc1Cn1c(-c2ccc(OCC[C@@H](C)C(=O)O)cc2Cl)nc2c(OC3(C)CC3)ncnc21` [Example U67, (R)-4-(3-chloro-4-(9-(5-fluoro-2-methoxybenzyl)-6-(1-methylcyclopropoxy)-9H-purin-8-yl)phenoxy)-2-methylbutanoic acid], the IC50 was over 10000 nM in the assay on DLD-1 cells (setting [9]) and 50.1 nM with DLD-1 BRCA2−/− cells (setting [10]).

Consider `CNCCOc1ccc(-c2nc3c(OC4(C)CC4)ncnc3n2Cc2cc(C)ccn2)c(Cl)c1` [Example T137, 2-(3-chloro-4-(6-(1-methylcyclopropoxy)-9-((4-methylpyridin-2-yl)methyl)-9H-purin-8-yl)phenoxy)-N-methylethan-1-amine], for which the IC50 in the assay on DLD-1 cells (setting [1]) was over 10000 nM; in the assay on DLD-1 BRCA2−/− cells (setting [2]) it was 200 nM.

For the molecule `CC(=O)N1CCN(CCOc2ccc(-c3nc4c(OC(C)C)ncnc4n3Cc3ccccc3)c(C)c2)CC1` [Example B4, 1-(4-(2-(4-(9-benzyl-6-isopropoxy-9H-purin-8-yl)-3-methyl-phenoxy)ethyl)piperazin-1-yl)ethan-1-one], the IC50 with DLD-1 cells (setting [11]) is over 10000 nM; with DLD-1 BRCA2−/− cells (setting [12]), 794 nM.

As for `Cc1cc(N2CCNCC2)ncc1-c1nc2c(OC3(C)CC3)ncnc2n1Cc1ccccc1` [Example C5, 9-benzyl-8-(4-methyl-6-(piperazin-1-yl)pyridin-3-yl)-6-(1-methylcyclopropoxy)-9H-purine], the IC50 in the assay on DLD-1 cells (setting [11]) is over 10000 nM; in the assay with DLD-1 BRCA2−/− cells (setting [12]) it was 316 nM.

In the case of `CC1(Oc2ncnc3c2nc(-c2ccc(OCCN4CCNCC4)c(Cl)c2Cl)n3Cc2ccccc2)CC1` [Example J1, 9-benzyl-8-(2,3-dichloro-4-(2-(piperazin-1-yl)ethoxy)phenyl)-6-(1-methylcyclopropoxy)-9H-purine], the IC50 in the assay on DLD-1 cells (setting [11]) is 501 nM; in the assay with DLD-1 BRCA2−/− cells (setting [12]), 251 nM.

For the molecule `CC1(Oc2ncnc3c2nc(-c2ccc(CN4CCCC4)cc2Cl)n3Cc2ccccc2)CC1` [Example N5, 9-benzyl-8-(2-chloro-4-(pyrrolidin-1-ylmethyl)phenyl)-6-(1-methylcyclopropoxy)-9H-purine], the figures for the IC50 with DLD-1 cells (setting [11]) and in the assay with DLD-1 BRCA2−/− cells (setting [12]) were 3980 nM and 100 nM, respectively.

On to `FC(F)(F)C1(Oc2ncnc3c2nc(-c2ccc(OCCN4CCNCC4)cc2Cl)n3Cc2ccccc2)COC1` [Example T424, 9-benzyl-8-(2-chloro-4-(2-(piperazin-1-yl)ethoxy)phenyl)-6-((3-(trifluoromethyl)oxetan-3-yl)oxy)-9H-purine], for which the IC50 was 10000 nM with DLD-1 cells (setting [3]) and 2000 nM in the assay on DLD-1 BRCA2−/− cells (setting [4]).

For `CC1(Oc2ncnc3c2nc(-c2ccc(OCCCN4CC[C@@H](O)C4)cc2Cl)n3Cc2cc(C(F)(F)F)ccn2)CC1` [Example T554, (R)-1-(3-(3-chloro-4-(6-(1-methylcyclopropoxy)-9-((4-(trifluoromethyl)pyridin-2-yl)methyl)-9H-purin-8-yl)phenoxy)propyl)pyrrolidin-3-ol], the IC50 was over 10000 nM in the assay with DLD-1 cells (setting [1]) and 316 nM in the assay with DLD-1 BRCA2−/− cells (setting [2]).

`CC(COc1ccc(-c2nc3c(OC4(C)CC4)ncnc3n2Cc2cccc(Cl)c2)c(Cl)c1)CC(=O)O` (single isomer, unassigned) [Example T294, 4-(3-chloro-4-(9-(3-chlorobenzyl)-6-(1-methylcyclopropoxy)-9H-purin-8-yl)phenoxy)-3-methylbutanoic acid]: the IC50 in the assay with DLD-1 cells (setting [5]) is over 10000 nM; in the assay on DLD-1 BRCA2−/− cells (setting [6]), 158 nM.

Regarding `CC(C)(CCOc1cccc(-c2nc3c(OC4(C)CC4)ncnc3n2Cc2cccc(Cl)c2)c1Cl)CC(=O)O` [Example U28, 5-(2-chloro-3-(9-(3-chlorobenzyl)-6-(1-methylcyclopropoxy)-9H-purin-8-yl)phenoxy)-3,3-dimethylpentanoic acid], the IC50 in the assay with DLD-1 cells (setting [9]) is over 10000 nM; with DLD-1 BRCA2−/− cells (setting [10]), 79.4 nM.

As to `CC1(Oc2ncnc3c2nc(-c2ccc(OCCOC(C)(C)C(=O)O)cc2Cl)n3Cc2cccc(Cl)c2)CC1` [Example T450, 2-(2-(3-chloro-4-(9-(3-chlorobenzyl)-6-(1-methylcyclopropoxy)-9H-purin-8-yl)phenoxy)ethoxy)-2-methylpropanoic acid], the IC50 in the assay with DLD-1 cells (setting [3]) was over 10000 nM; with DLD-1 BRCA2−/− cells (setting [4]), 200 nM.

Regarding `CC1(Oc2ncnc3c2nc(-c2ccc(OCCN4CCNCC4)cc2F)n3Cc2cc(Cl)ccn2)CC1` [Example T349, 9-((4-chloropyridin-2-yl)methyl)-8-(2-fluoro-4-(2-(piperazin-1-yl)ethoxy)phenyl)-6-(1-methylcyclopropoxy)-9H-purine], the IC50 with DLD-1 cells (setting [7]) was over 10000 nM; in the assay on DLD-1 BRCA2−/− cells (setting [8]) it was 631 nM.

`CC(CCOc1ccc(-c2nc3c(OC4(C)CC4)ncnc3n2Cc2c(F)c(F)c(F)c(F)c2F)c(Cl)c1)C(=O)O` (racemic) [Example T251, 4-(3-chloro-4-(6-(1-methylcyclopropoxy)-9-((perfluorophenyl)methyl)-9H-purin-8-yl)phenoxy)-2-methylbutanoic acid]: the IC50 in the assay with DLD-1 cells (setting [5]) was over 10000 nM; in the assay with DLD-1 BRCA2−/− cells (setting [6]) it was 2000 nM.

For `CC1(Oc2ncnc3c2nc(-c2cc(F)cc(OCCC(=O)O)c2Cl)n3Cc2cccc(Cl)c2)CC1` [Example U39, 3-(2-chloro-3-(9-(3-chlorobenzyl)-6-(1-methylcyclopropoxy)-9H-purin-8-yl)-5-fluorophenoxy)propanoic acid], the IC50 in the assay with DLD-1 cells (setting [9]) was over 10000 nM; with DLD-1 BRCA2−/− cells (setting [10]) it was 12.6 nM.

Consider `Cc1ccnc(Cn2c(-c3ccc(CN(C)C)cc3Cl)nc3c(OC4(C)CC4)ncnc32)c1` [Example T136, 1-(3-chloro-4-(6-(1-methylcyclopropoxy)-9-((4-methylpyridin-2-yl)methyl)-9H-purin-8-yl)phenyl)-N,N-dimethylmethanamine], for which the results for the IC50 in the assay on DLD-1 cells (setting [1]) and in the assay on DLD-1 BRCA2−/− cells (setting [2]) were over 10000 nM and 501 nM, respectively.
